Entries after “also recorded” stand apart in the source; their conditions may differ.

Results on one compound are retold here after patent US20210261538A1, “PROTEIN ARGININE METHYLTRANSFERASE 5 (PRMT5) DEGRADATION / DISRUPTION COMPOUNDS AND METHODS OF USE” (ICAHN SCHOOL OF MEDICINE AT MOUNT SINAI, priority 2018, published 2021).

Data set [1] has as its target T1, PRMT5 (Homo sapiens, UniProt O14744). As to the kind of experiment: Western blot of PRMT5 protein levels in HCT116 cells. It is filed as cell-based. The arrangement: endogenous in cells. To be noted: 5 μM, 6 days. The method, then:
(§1) MCF-7 cells, HEK293T cells and HeLa cells were cultured in Dulbecco's Modified Eagle Medium (DMEM) supplemented with 10% fetal bovine serum (FBS) in 5% CO2 at 37° C. Jurkat cells were cultured in RPMI 1640 medium supplemented with 10% FBS in 5% CO2 at 37° C. H2171 cells were cultured in HITES medium supplemented with 10% FBS in 5% CO2 at 37° C. HCT116 were cultured in McCoy's 5A medium supplemented with 10% fetal bovine serum (FBS) in 5% CO2 at 37° C. All the cells lines were treated with 5 μM (or indicated concentration) of PRMT5 inhibitor (EPZ015666) or degraders, or equivalent volume of DMSO for 6 days (or indicated time points). Fresh compounds were constituted in medium and used for every 2 days. The antibodies used in this study are: PRMT5 antibody (Active Motif), (3-actin antibody (Sigma), SDMA antibody (collaboration with Cell Signaling Technologies). Cell cultures were harvested at the end of compound treatments and applied subjected to western blotting assay. Briefly, cells were washed with PBS and lysed with RIPA lysis buffer for 20 minutes on ice. Then lysates were centrifuged and the clear supernatant were collected. SDS loading buffer was added to the lysates and then the mixture was boiled at 100° C. for 5 minutes. Samples were loaded to 10% or 12% SDS-PAGE gel and ran at 120V for 1.5 hours. […]
(Immunoblotting shows a protein as a band on a membrane.)

Data set [2] has as its target T1, PRMT5. As to the kind of experiment: Western blot of PRMT5 protein levels in H2171 cells. The format is cell-based. The arrangement: endogenous in cells. Particulars: 5 μM, 6 days. The method, then:
as §1

For data set [3], the target named is T1, PRMT5. In words: Western blot of PRMT5 protein levels in HeLa cells. The arrangement: endogenous in cells. Particulars: 5 μM, 6 days. The format is cell-based. The method, then:
as §1

Data set [4] deals with T1, PRMT5. As to the kind of experiment: Western blot of PRMT5 protein levels in Jurkat cells. It is filed as cell-based. The arrangement: endogenous in cells. To be noted: 5 μM, 6 days. The method, then:
as §1

The subject of data set [5] is PRMT5 substrates. In words: Arginine symmetric dimethylation (SDMA Western blot) in MCF-7 cells. The format is cell-based. The method, then:
MCF-7 cells, HEK293T cells and HeLa cells were cultured in Dulbecco's Modified Eagle Medium (DMEM) supplemented with 10% fetal bovine serum (FBS) in 5% CO2 at 37° C. Jurkat cells were cultured in RPMI 1640 medium supplemented with 10% FBS in 5% CO2 at 37° C. H2171 cells were cultured in HITES medium supplemented with 10% FBS in 5% CO2 at 37° C. HCT116 were cultured in McCoy's 5A medium supplemented with 10% fetal bovine serum (FBS) in 5% CO2 at 37° C. All the cells lines were treated with 5 μM (or indicated concentration) of PRMT5 inhibitor (EPZ015666) or degraders, or equivalent volume of DMSO for 6 days (or indicated time points). Fresh compounds were constituted in medium and used for every 2 days. The antibodies used in this study are: PRMT5 antibody (Active Motif), (3-actin antibody (Sigma), SDMA antibody (collaboration with Cell Signaling Technologies). Cell cultures were harvested at the end of compound treatments and applied subjected to western blotting assay. Briefly, cells were washed with PBS and lysed with RIPA lysis buffer for 20 minutes on ice. Then lysates were centrifuged and the clear supernatant were collected. SDS loading buffer was added to the lysates and then the mixture was boiled at 100° C. for 5 minutes. Samples were loaded to 10% or 12% SDS-PAGE gel and ran at 120V for 1.5 hours. Then the proteins were transferred to PVDF membrane and blocked in 5% milk fat at room temperature for 1 hour. Then the membranes were incubated with indicated antibodies at 4° C. overnight. Membranes were washed with PBST buffer three times for 10 minutes each time and incubated with HRP-conjugated (horse radish peroxidase) secondary antibodies at room temperature for 1 hour. Again the membranes were washed with PBST buffer three times for 10 minutes each time. Finally, the indicated proteins on the membranes were visualized with ECL (enhanced chemiluminescence) reagents. MCF-7 cells were treated with EPZ015666 or YS43-22 at indicated compound concentrations (μM) for 6 days.

Data set [6] deals with T1, PRMT5. As to the kind of experiment: Western blot of PRMT5 protein levels in multiple cell lines. Particulars: MCF-7, Hela, Jurkat, HCT116, 293T and H2171 cells, 5 μM, 6 days. The format is cell-based. The arrangement: endogenous in cells; host or cells: MCF-7. The method, then:
as §1

A short description of data set [7]: Standard PK study in mice. It is filed as in vivo, male Swiss Albino mice. Particulars: single 150 mg/kg IP injection. The method, then:
Standard PK studies were conducted using male Swiss Albino mice. A single 150 mg/kg intraperitoneal (IP) injection of YS43-22 was evaluated. Plasma concentrations of YS43-22 reported at each of the six time points (15 min, 30 min, 1 h, 2 h, 6 h, and 12 h post dosing) are the average values from 3 test animals.

Data set [8] relates to MCF-7 cells. In words: Cell proliferation assay (Cell-Titer Glo) in MCF-7 cells. It is filed as cell-based. To be noted: 5 μM, 10 days. The method, then: The same starting number of MCF-7 cells were treated with DMSO, 5 μM EPZ015666 or YS43-22 for up to 10 days. Every two days, fresh compounds were constituted in DMEM medium and added to the cell culture. Relative cell numbers were counted every two days (i.e. day 0, 2, 4, 6, 8 and 10) using Cell-Titer Glo kit (Promega). MCF-7 cells were treated with DMSO, EPZ015666 (5 μM), or YS43-22 (5 μM) for 10 days.

T1 sequence (O14744 whole entry): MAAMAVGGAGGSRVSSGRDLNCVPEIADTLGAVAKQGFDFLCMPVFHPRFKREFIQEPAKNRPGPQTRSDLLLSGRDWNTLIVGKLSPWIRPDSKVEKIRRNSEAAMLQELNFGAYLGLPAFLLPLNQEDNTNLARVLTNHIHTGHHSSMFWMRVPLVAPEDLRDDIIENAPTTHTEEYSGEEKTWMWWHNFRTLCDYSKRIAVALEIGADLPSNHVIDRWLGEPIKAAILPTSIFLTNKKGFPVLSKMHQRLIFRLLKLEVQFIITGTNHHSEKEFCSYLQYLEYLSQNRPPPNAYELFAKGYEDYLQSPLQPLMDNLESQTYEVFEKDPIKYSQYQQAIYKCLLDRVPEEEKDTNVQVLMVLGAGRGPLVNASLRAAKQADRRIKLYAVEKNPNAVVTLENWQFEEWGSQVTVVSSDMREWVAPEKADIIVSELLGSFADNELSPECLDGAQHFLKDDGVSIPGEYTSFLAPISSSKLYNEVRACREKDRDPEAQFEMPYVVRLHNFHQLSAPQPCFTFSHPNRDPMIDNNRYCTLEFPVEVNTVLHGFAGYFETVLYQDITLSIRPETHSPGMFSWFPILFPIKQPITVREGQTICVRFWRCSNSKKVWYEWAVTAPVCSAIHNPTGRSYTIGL
T1 sequence (Q9BQA1 whole entry partner): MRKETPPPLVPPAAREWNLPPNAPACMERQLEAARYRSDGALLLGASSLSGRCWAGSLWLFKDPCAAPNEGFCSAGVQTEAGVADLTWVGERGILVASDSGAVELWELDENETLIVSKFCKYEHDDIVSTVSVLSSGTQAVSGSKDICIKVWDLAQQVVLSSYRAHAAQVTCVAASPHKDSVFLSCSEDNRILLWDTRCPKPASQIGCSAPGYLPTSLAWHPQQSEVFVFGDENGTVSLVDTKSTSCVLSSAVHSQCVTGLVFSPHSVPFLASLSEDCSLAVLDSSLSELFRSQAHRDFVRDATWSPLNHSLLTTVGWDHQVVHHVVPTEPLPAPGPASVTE

Consider `Cc1ncsc1-c1ccc([C@H](C)NC(=O)[C@@H]2C[C@@H](O)CN2C(=O)[C@@H](NC(=O)COCCOCCOCCOCCOCC(=O)N2CC(Nc3cc(C(=O)NC[C@H](O)CN4CCc5ccccc5C4)ncn3)C2)C(C)(C)C)cc1` [YS43-22, N-((S)-3-(3,4-dihydroisoquinolin-2(1H)-yl)-2-hydroxypropyl)-6-((1-((S)-19-((2S,4R)-4-hydroxy-2-(((S)-1-(4-(4-methylthiazol-5-yl)phenyl)ethyl)carbamoyl)pyrrolidine-1-carbonyl)-20,20-dimethyl-17-oxo-3,6,9,12,15-pentaoxa-18-azahenicosanoyl)azetidin-3-yl)amino)pyrimidine-4-carboxamide], for which the PRMT5 protein levels entry in data set [1] is recorded as “slightly”; in data set [2], “not obviously”; in data set [3] it was “moderately”; in data set [4] it was “very well”. The “suppressing PRMT5 activity” value in data set [5] (MCF-7 cells (Examples 90-92)) was “especially effective”. In addition, the “inhibition of arginine symmetric dimethylation” value in data set [5] (MCF-7 cells, indicated concentrations (μM), 6 days) was “significantly inhibited; also recorded: significant inhibition”. Moreover, the “PRMT5 protein levels in different cell lines” value in data set [6] is on record as “significantly reduced”. The “relative potency in down-regulation of PRMT5 protein levels” value in data set [6] is reported as “more potent than YS43-8”. Moreover, the clinical observations result in data set [7] is on record as “no abnormal clinical observations”. Also, in data set [7] (15 min to 12 h post dosing, 150 mg/kg), the “bioavailability (plasma concentrations)” value is recorded as “Bioavailable”. Further, the “cell growth of MCF-7 cells” value in data set [8] is given as “significantly reduced; also recorded: significant potency; also recorded: significantly inhibited”.
